The source made the active and inactive calls. The rule behind the calls is not given here.
How the values were obtained:
[1] = tested on: Pseudopestalotiopsis theae; experiment: Fungicidal activity against grey blight disease-causing Pestalotiopsis theae infested tea plantation assessed as disease incidence at 0.05 % applied as foliar spray (reference value: 39.2 %); type: functional
[2] = tested on: Pseudopestalotiopsis theae; experiment: Fungicidal activity against grey blight disease-causing Pestalotiopsis theae infested tea plantation assessed as green leaf yield which made tea at 0.05 % applied as foliar spray (reference value: 2884 kg/ha ); type: functional
[3] = tested on: Pseudopestalotiopsis theae; experiment: Fungicidal activity against Pestalotiopsis theae infested tea plant in nursery assessed as reduction in plant casuality at 0.05 % sprayed on topsoil measured after 90 days (reference value: 58 %); type: functional; design: scale not given: the % may be the effect or the level left
[4] = tested on: Pseudopestalotiopsis theae; experiment: Fungicidal activity against Pestalotiopsis theae infested tea plant in nursery assessed as reduction in plant casuality at 5 % sprayed on topsoil measured after 90 days; type: functional, organism-based
[5] = tested on: Pseudopestalotiopsis theae; experiment: Fungicidal activity against grey blight disease-causing Pestalotiopsis theae infested tea plantation assessed as green leaf yield which made tea compound applied on shears during hravesting (reference value: 3044 kg/ha); type: functional
[6] = tested on: Pseudopestalotiopsis theae; experiment: Fungicidal activity against grey blight disease-causing Pestalotiopsis theae infested tea plantation assessed as disease incidence compound applied on shears during hravesting (reference value: 47 %); type: functional
[7] = tested on: Pseudopestalotiopsis theae; experiment: Fungicidal activity against Pestalotiopsis theae infested tea plant in nursery assessed as reduction in plant casuality at 3 % sprayed on topsoil measured after 90 days; type: functional, organism-based

Row | Structure (SMILES) | Activity [1] [%] | Crop_yield [2] [kg/ha] | Activity [3] [%] | Activity [4] | Crop_yield [5] [kg/ha] | Activity [6] [%] | Activity [7]
1 | COC(=O)Nc1nc2ccccc2[nH]1 [CARBENDAZIM] | 6.6 | 3845 | 5 | Active |  |  | 
2 | COC(=O)NC(=S)Nc1ccccc1NC(=S)NC(=O)OC [THIOPHANATE METHYL] | 5.6 | 3886 | 3 |  | 3457 | 17.5 | Active

From ChEMBL document CHEMBL3045161, “Evaluation of fungicides and biocontrol agents against grey blight disease of tea in the field” (2008)
